From publication PMC5727262, “Molecular mechanism of K65 acetylation-induced attenuation of Ubc9 and the NDSM interaction” (Scientific Reports, 2017)
Peptide text beside a SMILES is read from it.

Tests used:
Ubc9 (WT) = target: T1, Ubc9 (WT) (Homo sapiens, UniProt P63279); assay: ITC binding of sumoylation-motif peptides to WT Ubc9; conditions: 25 °C, pH 8.0, 20 mM potassium phosphate, 100 mM NaCl, 1:1 binding stoichiometry assumed, triplicate measurements
T1 construct: made in house; host or cells: E. coli (stated as BL21 (DE3) for the acetylated variant)
Description: (§1) ITC binding experiments were used to quantify the effect of Ubc9 acetylation on NDSM substrate binding (Fig. 2A). […] The dissociation constants for Elk1 and CBP were 70 and 57 μM, respectively (Fig. 2C and D), which were roughly similar to the dissociation constant of 56 μM obtained for the more acidic Calpain2 (Fig. 2E). Contrary to our expectations, RanGAP1 bound more strongly than the NDSMs with a dissociation constant of 13 μM. […] Similarly, not every acidic residue from the NDSM contributed equally to Ubc9 binding and even positions ×1 and ×2 could be potentially deciding factors. We exploited the long acidic stretch of Calpain2 in additional studies described below to explain this phenomenon. […] The observed switching from exothermic versus endothermic binding of the NDSM versus SM containing peptides is surprising. We speculate that the long negatively charged tail of NDSM may interact with Ubc9 in such a way that it free up more Ubc9-bound water molecules, resulting in an overall entropy increase. More work need to be done to fully understand its implication in binding mechanism.
(§2) Figure 2 Effect of K65 acetylation on Ubc9 affinity for substrates. (A) Summary of the thermodynamic parameters obtained from triplicate isothermal titration calorimetry (ITC) measurements. Representative ITC thermograms for Ubc9 binding to the RanGAP1 (B), Elk1 (C), CBP (D), and Calpain2 (E) peptides. The heat absorbed (or released) post-injection, after correcting for the heat of dilution, is shown in lower panels. […]
(§3) The ITC experiments were repeated twice at 25 °C by a controlled 2 μl addition of peptide to 200 μl of WT or Ac-Ubc9K65 in pH 8.0 buffer containing 20 mM potassium phosphate and 100 mM NaCl using an iTC200 calorimeter (GE Healthcare, Parsippany, NJ, USA). The first data point of each experiment was excluded from analysis and the baseline-corrected data were analyzed using Origin 7.0 software assuming 1:1 binding stoichiometry.

Ac-Ubc9K65 = target: T2, Ac-Ubc9K65 (Homo sapiens, UniProt P63279); assay: ITC binding of sumoylation-motif peptides to K65-acetylated Ubc9; conditions: 25 °C, pH 8.0, 20 mM potassium phosphate, 100 mM NaCl, 1:1 binding stoichiometry assumed, triplicate measurements
T2 construct: made in house; host or cells: E. coli BL21 (DE3) with pAcKRS-3 and pCDF PylT-1-Ubc9 (amber codon at K65), fed acetyl-lysine
Description: as §1, §2, §3

T1 sequence (P63279 whole entry): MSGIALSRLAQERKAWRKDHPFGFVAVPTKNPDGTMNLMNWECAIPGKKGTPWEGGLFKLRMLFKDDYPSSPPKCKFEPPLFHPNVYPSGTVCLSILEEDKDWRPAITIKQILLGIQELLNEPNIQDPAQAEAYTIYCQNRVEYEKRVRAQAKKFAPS
T2 sequence (P63279 2-158): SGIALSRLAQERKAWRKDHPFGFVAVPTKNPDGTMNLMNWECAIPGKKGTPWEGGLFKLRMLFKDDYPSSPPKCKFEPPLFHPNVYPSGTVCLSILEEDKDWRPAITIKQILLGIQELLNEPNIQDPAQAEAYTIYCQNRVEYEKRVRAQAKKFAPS

With `CC[C@H](C)[C@H](NC(=O)[C@H](CC(C)C)NC(=O)[C@H](Cc1ccc(O)cc1)NC(=O)[C@H](CCC(N)=O)NC(=O)[C@@H]1CCCN1)C(=O)N[C@@H](CCCCN)C(=O)N[C@@H](CC(C)C)C(=O)N[C@@H](CCC(=O)O)C(=O)N[C@@H](CCC(=O)O)C(=O)N[C@@H](CCC(=O)O)C(=O)N[C@@H](CC(=O)O)C(=O)N[C@@H](CCC(=O)O)C(=O)N[C@@H](CC(=O)O)C(=O)N[C@@H](CCC(=O)O)C(=O)N[C@@H](CCC(=O)O)C(=O)N[C@@H](CC(=O)O)C(=O)NCC(=O)N[C@@H](CCC(=O)O)C(=O)N[C@@H](CO)C(=O)NCC(=O)N[C@@H](CS)C(=O)N[C@H](C(=O)O)[C@@H](C)O` [Calpain2] (H-PQYLIKLEEEDEDEEDGESGCT-OH) the Kd (Ubc9 (WT)) was 55.8 ± 3.3 µM and the Kd (Ac-Ubc9K65) was 80.3 ± 2.7 µM.
For `CC(C)C[C@H](NC(=O)[C@H](CCC(=O)O)NC(=O)[C@H](CCC(=O)O)NC(=O)[C@H](CCCCN)NC(=O)[C@@H]1CCCN1C(=O)CNC(=O)[C@H](CCC(=O)O)NC(=O)[C@@H](NC(=O)[C@H](CCCCN)NC(=O)[C@@H](NC(=O)[C@H](CCC(=O)O)NC(=O)[C@@H]1CCCN1C(=O)[C@@H]1CCCN1C(=O)[C@H](CC(C)C)NC(=O)[C@H](C)NC(=O)[C@@H](N)CCCNC(=N)N)C(C)C)C(C)C)C(=O)N[C@@H](CCC(=O)O)C(=O)N[C@H](C(=O)N[C@@H](C)C(=O)NCC(=O)O)C(C)C` [Elk1] (H-RALPPEVKVEGPKEELEVAG-OH), the Kd (Ubc9 (WT)) was 70.2 ± 1.3 µM and the Kd (Ac-Ubc9K65) was 103 µM.
`CC(C)[C@H](NC(=O)[C@H](CCC(=O)O)NC(=O)[C@@H](NC(=O)[C@H](CCCCN)NC(=O)[C@@H](NC(=O)[C@H](CCC(=O)O)NC(=O)[C@@H]1CCCN1C(=O)[C@H](CCCCN)NC(=O)[C@H](CCCCN)NC(=O)[C@H](CCC(=O)O)NC(=O)[C@@H](N)CC(=O)O)C(C)C)C(C)C)C(=O)N[C@@H](CCCCN)C(=O)N[C@@H](CCC(=O)O)C(=O)N[C@@H](CCC(=O)O)C(=O)N[C@@H](CCC(=O)O)C(=O)N[C@@H](CCC(=O)O)C(=O)N[C@@H](CO)C(=O)N[C@@H](CO)C(=O)N[C@@H](CO)C(=O)N[C@@H](CC(N)=O)C(=O)O` [CBP] (H-DEKKPEVKVEVKEEEESSSN-OH) gave a Kd (Ubc9 (WT)) of 57.4 ± 2.8 µM and a Kd (Ac-Ubc9K65) of 105 µM.
Compound `CC[C@H](C)[C@H](NC(=O)[C@H](C)NC(=O)[C@H](CCCCN)NC(=O)[C@@H](NC(=O)[C@H](CCCCN)NC(=O)[C@H](CC(=O)O)NC(=O)[C@H](CCC(=O)O)NC(=O)[C@H](CO)NC(=O)[C@H](CCCCN)NC(=O)[C@H](CC(C)C)NC(=O)[C@H](CC(C)C)NC(=O)CNC(=O)[C@H](CCSC)NC(=O)[C@H](Cc1c[nH]cn1)NC(=O)[C@@H](NC(=O)[C@@H](N)CC(C)C)C(C)C)C(C)C)C(=O)N[C@@H](C)C(=O)N[C@@H](CC(N)=O)C(=O)N[C@@H](CC(C)C)C(=O)N[C@@H](Cc1ccc(O)cc1)C(=O)O` [RanGAP1, reference compound] (H-LVHMGLLKSEDKVKAIANLY-OH) has a Kd (Ubc9 (WT)) of 13.5 ± 0.9 µM and a Kd (Ac-Ubc9K65) of 13.5 ± 2.2 µM.
